Common to all, as to format: cell-based
In assay [1] the test system is wild-type HeLa cell line. Kind of assay: Wild-type versus KRAS HeLa cell viability: wild-type KRAS transgene. The conditions noted are these: Homo sapiens; HeLa cells expressing wild-type KRAS, 72 hours; read-out: WT GI50. The protocol: (§1) Assay to Measure the Effects of Compounds of the Invention on Wild-Type Versus KRAS HeLa Cell Viability
(§2) Identifying synthetic lethal interactions between targeted small molecule therapies and characterised oncogenic mutations is a goal of modern oncology drug discovery efforts. To this end, PLK1-PBD inhibitors were tested on HeLa cells engineered to inducibly express wild-type or oncogenic KrasG12V transgenes using the FLP-in/T-Rex system (Invitrogen). Cells were plated, and then treated with or without Doxycycline to induce transgene expression, and then treated with serially-diluted PBD inhibitors. After 72 hours of incubation, cell viability was assessed using the Cell Titre Blue reagent (Promega) and a BMG Pherastar plate reader. The effect of PBD inhibition on cell viability with either wild-type or oncogenic G12V KRAS was assessed using the graphing/curve-fitting packages in GraphPad Prism.

For assay [2], the system named is HCT116 cells. Kind of assay: Effects on HCT116 colorectal cancer cell viability (cell titre blue, 72 hours). The conditions noted are these: Homo sapiens, HCT-116, HCT116 cell line. How it is done:
Assay to Measure the Effects of Compounds of the Invention on HCT116 Colorectal Cancer Cell Viability
The following protocol was used to measure the effects of compounds of the invention on HCT116 cell viability.
1. HCT116 cells were grown in RPM11640 media supplemented with Glutamax and 10% FBS in a 37° C./5% CO2 incubator.
2. Growing culture of HCT116 cells were trypsinised, counted and diluted to give 10,000 cells/mL in an appropriate volume, allowing at least 6 mL of cells per plate.
3. 200 μL of PBS were added to all the outer wells of a flat-bottomed (8×12) 96-well TC plate. 100 μL of media were added only to wells in column 11 of the plates (these wells provided a blank for the cell titre blue assay). Two compounds were assayed on each plate.
4. 100 ul of 10,000 cells/mL HCT116s were plated in rows B-G of each plate.
5. The cells were incubated (37° C. 5% CO2) for 24 hours before treating with compounds.
6. An 8 mM compound stock in DMSO was prepared for all compounds to be tested. 2.5 μL of the compound stock was added to 1000 μL growth medium in a 96-well deep well block and serial dilutions were prepared across the plate by transferring 500 μL into wells containing 500 μL growth medium+0.25% DMSO to give eight concentrations of compound (this ensured a constant amount of DMSO at all concentrations of compound). When making up growth medium+DMSO, an amount of 5 ml was allowed per compound to be diluted.
7. 3 rows of cells were treated with 100 μL/well from each row on the dilution plate so that each cell plate is treated with a single compound. This gave a final volume in all wells of 200 μL and a titration of compound from a final concentration of 10 uM down to 78 nM.
8. The cells were incubated (37° C. 5% CO2) for 72 hours.
9. 5 ul cell titre blue reagent (Promega) were added to all wells except the edge wells (which contain PBS only) and incubated (37° C. 5% CO2) for 2.5-3 hours.
10. Fluorescence was measured on a suitable plate reader using a 530-570 nm filter set for excitation and a 580-620 nm filter set for fluorescence emission.
11. Data were analysed using an appropriate graphing package (such as GraphPad Prism). Data were expressed as the concentration of compound causing a 50% inhibition of cell viability or GI50.

The subject of assay [3] is KRAS G12V HeLa cell line. Kind of assay: Wild-type versus KRAS HeLa cell viability: oncogenic KrasG12V transgene. The conditions noted are these: Homo sapiens; HeLa cells expressing KRAS G12V, 72 hours. How it is done: as §1, §2
Assay [4] deals with HeLa cells. The assay can be described thus: Arresting cells in mitosis (Mitotic Index, phosphorylated Histone H3 immunofluorescence). The conditions noted are these: HeLa cell line, 24 hours; for EC50: Homo sapiens, Mitotic Index, read-out: EC50. How it is done: Assay to Measure the Effects of Compounds of the Invention on Arresting Cells in Mitosis
Inhibiting the ability of PLK1 to bind to its phosphopeptide binding partners through the PBD causes cells to arrest in mitosis. Experimentally, this is measured by assessing the number of cells which are in mitosis at a certain time after treatment with a PLK1-PBD inhibitor by immunofluorescent detection of phosphorylated Histone H3 (pH3), a marker which is only present in mitotic cells. PLK1-PBD inhibitors are expected to cause a dose-dependent increase in pH3-positive cells, which is reported as Mitotic Index (MI)—the percentage of cells which, at a given time, are positive for this mitotic mark. The following protocol has been used to measure MI: • 1. Plate HeLa cells at 10,000/well in 100 μL/well in clear flat-bottom 96-well plates and incubate overnight. • 2. Immediately prior to treatment, dilute compounds in medium in a 96-well round-bottom plate. Make up all compounds at 5 times final desired concentration on cells, and serially dilute 1:2 across the plate ensuring that there is 100 μL of each concentration (start with 200 μl of the top concentration on the left of the plate). […] Treat cells by adding 25 μL from the compound dilution plate to triplicate wells. • 4. Incubate cells with compound for 24 hours. • 5. After 24 hours, fixation and staining is carried out as follows: • 6. Dilute 37% formaldehyde in PBS to give a 12.95% solution by adding 3.5 mL formaldehyde to 6.5 mL of PBS. • 7. Add 50 μL of formaldehyde fixation solution directly to each well of cells (which already contain 125 μL medium). • 8. Incubate at room temp for 10 minutes. • 9. Remove fixative and add 100 μL/well PBS+0.1% Triton X-100 for 10 minutes. • 10. Aspirate and add 100 μL/well PBS+1% BSA. • 11. Aspirate and add 50 μL/well of primary antibody (anti-PH3 [1:2000]/anti-MPM2 [1:1000]) diluted in PBS+1% BSA. Incubate for 1 hour. • 12. Wash×2 with 100 μL/well PBS+1% BSA. • 13. Add 50 μL/well of secondary antibody plus Hoechst stain (anti-rabbit Alexafluor 488 [1:500]; anti-mouse Alexafluor 546 [1:500]+Hoechst 33342 [1:2500 final concentration=4 μg/mL])diluted in PBS+1% BSA. Incubate for 1 hour. • 14. Wash twice with 100 μL/well PBS+1% BSA. • 15. Aspirate and add 100 μL/well PBS. Plates can be stored at 4° C. in PBS for several weeks before scanning on the Cellomics Arrayscan. […] Scan on Cellomics using Target Activation Bioapplication. • 17. MI data emerging from the Cellomic Bioapplication can be used to plot MI versus compound concentration, and subsequently used to generate an EC50 value for each compound using an appropriate graphing/curve-fitting package such as GraphPad Prism.

Structures can show the parent of a compound that is named as a salt.

The record followed here is US11208405B2, “Pyrrole derivatives as PLK1 inhibitors” (SENTINEL ONCOLOGY LIMITED, priority 2017, dated 2021).

What is called GI50 is the concentration giving 50% growth inhibition. In general, EC50 refers to the concentration at which the effect is half-maximal.

With `CN(C)CCNC(=O)c1ccc(-c2ccc(-c3ccc(F)cc3)n2-c2ccccc2C(F)(F)F)cc1` [Example 59, hydrochloride], the GI50 in assay [1] came out at 10 nM; in assay [2], 50 nM; in assay [3], 8 nM.

Regarding `CN(C)CCCNC(=O)c1ccc(-c2ccc(-c3ccc(Cl)cc3)n2-c2ccccc2C(F)(F)F)cc1` [Example 58], the concentration for 50% growth inhibition (GI50) in assay [1] is 30 nM; in assay [2], 30 nM; in assay [3], 20 nM.

On to `O=C(NCCN1CCNCC1)c1ccc(-c2ccc(-c3ccc(Cl)cc3)n2-c2ccccc2C(F)(F)F)cc1` [Example 87, hydrochloride], for which the GI50 in assay [1] was found to be 20 nM; in assay [2], 60 nM; in assay [3], 8 nM.

Turning to `CN(C)CCNC(=O)c1ccc(-c2ccc(-c3ccccc3)n2-c2ccccc2C(F)(F)F)c(Cl)c1` [Example 37, hydrochloride], the GI50 was 50 nM in assay [1], 20 nM in assay [2] and 20 nM in assay [3].

With `CN(C)CCCNC(=O)c1ccc(-c2ccc(-c3ccc(Cl)cc3)n2-c2ccccc2C(F)(F)F)nc1` [Example 62, hydrochloride], the 50% growth inhibitory concentration (GI50) was 20 nM in assay [1], 120 nM in assay [2] and 8 nM in assay [3].

Consider `CN(C)CCNC(=O)c1ccc(-c2ccc(-c3ccc(Cl)cc3)n2-c2ccccc2C(F)(F)F)nc1` [Example 61, hydrochloride], for which the GI50 amounted to 20 nM in assay [1], 60 nM in assay [2] and 5 nM in assay [3].

`CN(C)CCNCc1cccc(-c2ccc(-c3ccc(Br)cc3)n2-c2ccccc2C(F)(F)F)c1` [Example 18, hydrochloride]: in assay [4], the “% mitotic cells” value was determined as 67% and the half-maximal effective concentration (EC50) is 1640 nM.

With `CC(C)c1ccc(-c2ccc(-c3cccc(C(=O)NCCN(C)C)c3)n2-c2ccccc2C(F)(F)F)cc1` [Example 22, hydrochloride], in assay [4], the “% mitotic cells” value is listed as 5% and the concentration giving a half-maximal response (EC50) is more than 10000 nM. This molecule had a GI50 in assay [2] of 2750 nM.

Consider `CN(C)CCNC(=O)c1cccc(-c2ccc(-c3ccc(Br)cc3)n2-c2ccccc2O)c1` [Example 25, hydrochloride], for which the 50% growth inhibitory concentration (GI50) in assay [1] came out at 2510 nM; in assay [2], 3890 nM; in assay [3], 3580 nM.

In the case of `CN(C)CCNC(=O)c1ccc(Cl)c(-c2ccc(-c3ccc(Br)cc3)n2-c2ccccc2C(F)(F)F)c1` [Example 15, hydrochloride], the 50% growth inhibitory concentration (GI50) in assay [1] amounted to 650 nM; in assay [2], 2180 nM; in assay [3], 380 nM.

`CN(C)Cc1cccc(-c2ccc(-c3ccc(Br)cc3)n2-c2ccccc2C(F)(F)F)c1` [Example 7, 1-[3-[5-(4-bromophenyl)-1-[2-(trifluoromethyl)phenyl]pyrrol-2-yl]phenyl]-N,N-dimethyl-methanamine Hydrochloride]: in assay [4], the “% mitotic cells” value was found to be 75% and the EC50 turned out to be 2200 nM. Moreover, halving of growth in assay [2] (GI50) required 1060 nM.

In the case of `CN1CCC(NC(=O)c2cccc(-c3ccc(-c4ccc(Br)cc4)n3-c3ccccc3C(F)(F)F)c2)C1` (stereo not drawn) [Example 14, hydrochloride], in assay [4], the “% mitotic cells” value is 68% and the 50% effective concentration (EC50) stood at 830 nM.

Consider `CN(C)CCNC(=O)c1cccc(-c2ccc(-c3ccccc3)n2-c2ccccc2C(F)(F)F)c1` [Example 3, hydrochloride], for which, in assay [4], the “% mitotic cells” value came out at 65% and the EC50 is 1580 nM.

`CN(C)CCNC(=O)c1cccc(-c2ccc(-c3ccc(Br)cc3)n2-c2cnccc2C(F)(F)F)c1` [Example 6]: in assay [4], the “% mitotic cells” value is listed as 86% and the EC50 stood at 660 nM. In assay [2], this molecule displayed a 50% growth inhibitory concentration (GI50) of 200 nM.

On to `CN(C)CCNC(=O)c1cccc(-c2ccc(-c3ccc(Br)cc3)n2-c2ccc(Cl)cc2C(F)(F)F)c1` [Example 4, hydrochloride], for which, in assay [4], the “% mitotic cells” value is 65% and the EC50 was determined as 550 nM.

As for `CN(C)CCCOc1cccc(-c2ccc(-c3ccc(Br)cc3)n2-c2ccccc2C(F)(F)F)c1` [Example 17, 3-[3-[5-(4-Bromophenyl)-1-[2-(trifluoromethyl)phenyl]pyrrol-2-yl]phenoxy]-N,N-dimethyl-propan-1-amine Hydrochloride], in assay [4], the “% mitotic cells” value is listed as 65% and the EC50 was 1450 nM.

Turning to `CN1CCC(NC(=O)c2cccc(-c3ccc(-c4ccc(Br)cc4)n3-c3ccccc3C(F)(F)F)c2)CC1` [Example 11, hydrochloride], in assay [4], the “% mitotic cells” value came to 54% and the concentration giving a half-maximal response (EC50) was 800 nM. This molecule also came in with a concentration for 50% growth inhibition (GI50) in assay [2] of 360 nM.

For the molecule `CN1CC[C@@H](NC(=O)c2cccc(-c3ccc(-c4ccc(Br)cc4)n3-c3ccccc3C(F)(F)F)c2)C1` [Example 13, hydrochloride], in assay [4], the “% mitotic cells” value is given as 71% and the EC50 was 750 nM. Besides, in assay [2], the GI50 is 660 nM.

Turning to `CN1CCC(CNC(=O)c2cccc(-c3ccc(-c4ccc(Br)cc4)n3-c3ccccc3C(F)(F)F)c2)CC1` [Example 10], in assay [4], the “% mitotic cells” value was 62% and the EC50 is 780 nM. Further, the GI50 in assay [2] is 340 nM.

With `CN(C)CCNC(=O)c1ccc(-c2ccc(-c3ccc(Br)cc3)n2-c2ccccc2C(F)(F)F)cn1` [Example 28], the GI50 was 60 nM in assay [1] and 30 nM in assay [3].

In the case of `CN(C)CCN(C)C(=O)c1cccc(-c2ccc(-c3ccc(Br)cc3)n2-c2ccccc2C(F)(F)F)c1` [Example 12, hydrochloride], in assay [4], the “% mitotic cells” value was determined as 62% and the EC50 came to 790 nM. Growth in assay [2] was halved (GI50) at 290 nM.

Take `CC(C)Cc1ccc(C(F)(F)F)c(-n2c(-c3ccc(Cl)cc3)ccc2-c2ccc(C(=O)NCCN(C)C)cc2)c1` [Example 63, hydrochloride]: in assay [2], the concentration for 50% growth inhibition (GI50) turned out to be 1640 nM.

In assay [2], `C[C@@H](CNC(=O)c1ccc(-c2ccc(-c3ccc(Cl)cc3)n2-c2ccccc2C(F)(F)F)cc1)N(C)C` [Example 103] yielded a concentration for 50% growth inhibition (GI50) of 40 nM.

Turning to `O=C(NCCN1CCOCC1)c1ccc(-c2ccc(-c3ccc(Cl)cc3)n2-c2ccccc2C(F)(F)F)cc1` [Example 95, hydrochloride], the concentration for 50% growth inhibition (GI50) in assay [2] was determined as 80 nM.
